Data: patent US20060003016A1, “Therapeutic method for endolymphatic hydrops associated diseases” (priority 2004, published 2006)
Like-named read-outs stand apart in the source and are kept apart here.

System: patients with Meniere's disease and endolymphatic hydrops associated diseases
Conditions: for hearing level / hearing level, average (500-4000 Hz): case 4, right ear
Description: In the present case who could be followed up for more than 24 months after treatment with water intake, the therapeutic effect was judged by using the criteria of AAO-HNS (1995)^14), 15). Proviso that in an examination on changes of the hearing, although the criteria in the four-frequency pure-tone averages (PTA) of AAO-HNS (1995)^14) adopted mean values of the hearing levels consisting of 500 Hz, 1000 Hz, 2000 Hz and 3000 Hz, in our case, the value of 4000 Hz was used in stead of that of 3000 Hz.
In each figure, a horizontal axis indicates frequency (Hz) and a vertical axis indicates hearing level. […] A graph in the upper position indicates better hearing level.

O [water intake, water]
hearing level after treatment (case 1, right ear, 125 Hz, Aug. 29, 2003, water intake 2 lit./day, before 45 dB): 0 dB
hearing level after treatment (case 1, right ear, 250 Hz, Aug. 29, 2003, water intake 2 lit./day, before 45 dB): 5 dB
hearing level after treatment (case 1, right ear, 500 Hz, Aug. 29, 2003, water intake 2 lit./day, before 45 dB): 15 dB
hearing level after treatment (case 1, right ear, 1000 Hz, Aug. 29, 2003, water intake 2 lit./day, before 50 dB): 15 dB
hearing level after treatment (case 1, right ear, 2000 Hz, Aug. 29, 2003, water intake 2 lit./day, before 35 dB): 15 dB
hearing level after treatment (case 1, right ear, 4000 Hz, Aug. 29, 2003, water intake 2 lit./day, before 10 dB): 10 dB
hearing level after treatment (case 1, right ear, 8000 Hz, Aug. 29, 2003, water intake 2 lit./day, before 15 dB): 25 dB
hearing level after treatment, average (500-4000 Hz) (case 1, right ear, Aug. 29, 2003, water intake 2 lit./day, before 35 dB): 13.75 dB
hearing level after treatment (case 3, left ear, 125 Hz, Jun. 7, 2002, poorest level 18-24 months after treatment, water intake, before 40 dB): 25 dB
hearing level after treatment (case 3, left ear, 250 Hz, Jun. 7, 2002, poorest level 18-24 months after treatment, water intake, before 25 dB): 20 dB
hearing level after treatment (case 3, left ear, 500 Hz, Jun. 7, 2002, poorest level 18-24 months after treatment, water intake, before 25 dB): 15 dB
hearing level after treatment (case 3, left ear, 1000 Hz, Jun. 7, 2002, poorest level 18-24 months after treatment, water intake, before 15 dB): 5 dB
hearing level after treatment (case 3, left ear, 2000 Hz, Jun. 7, 2002, poorest level 18-24 months after treatment, water intake, before 10 dB): 5 dB
hearing level after treatment (case 3, left ear, 4000 Hz, Jun. 7, 2002, poorest level 18-24 months after treatment, water intake, before 45 dB): 5 dB
hearing level after treatment (case 3, left ear, 8000 Hz, Jun. 7, 2002, poorest level 18-24 months after treatment, water intake, before 80 dB): 15 dB
hearing level after treatment, average (500-4000 Hz) (case 3, left ear, Jun. 7, 2002, poorest level 18-24 months after treatment, water intake, before 23.75 dB): 7.5 dB
hearing improved as compared with before the treatment (four-frequency PTA) (case 3, left ear, water intake): 16.25 dB
category of change of hearing, AAO-HNS (1995) criteria (case 3, water intake): improved
hearing level (125 Hz, Aug. 2003, water intake 1.5 lit./day): 25 dB
hearing level (125 Hz, Dec. 2003, water intake 1.5 lit./day): 25 dB
hearing level (125 Hz, Jan. 2004, water intake 1.5 lit./day): 25 dB
hearing level (125 Hz, Jul. 2003, water intake 1.5 lit./day): 50 dB
hearing level (125 Hz, Jun. 2003, water intake 1.5 lit./day from Jun. 20, 2003): 30 dB
hearing level (125 Hz, Nov. 2003, water intake 1.5 lit./day): 25 dB
hearing level (125 Hz, Oct. 2003, water intake 1.5 lit./day): 30 dB
hearing level (125 Hz, Sep. 2003, water intake 1.5 lit./day): 30 dB
hearing level (250 Hz, Aug. 2003, water intake 1.5 lit./day): 25 dB
hearing level (250 Hz, Dec. 2003, water intake 1.5 lit./day): 25 dB
hearing level (250 Hz, Jan. 2004, water intake 1.5 lit./day): 25 dB
hearing level (250 Hz, Jul. 2003, water intake 1.5 lit./day): 45 dB
hearing level (250 Hz, Jun. 2003, water intake 1.5 lit./day from Jun. 20, 2003): 35 dB
hearing level (250 Hz, Nov. 2003, water intake 1.5 lit./day): 20 dB
hearing level (250 Hz, Oct. 2003, water intake 1.5 lit./day): 30 dB
hearing level (250 Hz, Sep. 2003, water intake 1.5 lit./day): 40 dB
hearing level (500 Hz, Aug. 2003, water intake 1.5 lit./day): 25 dB
hearing level (500 Hz, Dec. 2003, water intake 1.5 lit./day): 15 dB
hearing level (500 Hz, Jan. 2004, water intake 1.5 lit./day): 20 dB
hearing level (500 Hz, Jul. 2003, water intake 1.5 lit./day): 45 dB
hearing level (500 Hz, Jun. 2003, water intake 1.5 lit./day from Jun. 20, 2003): 40 dB
hearing level (500 Hz, Nov. 2003, water intake 1.5 lit./day): 20 dB
hearing level (500 Hz, Oct. 2003, water intake 1.5 lit./day): 25 dB
hearing level (500 Hz, Sep. 2003, water intake 1.5 lit./day): 40 dB
hearing level (1000 Hz, Aug. 2003, water intake 1.5 lit./day): 30 dB
hearing level (1000 Hz, Dec. 2003, water intake 1.5 lit./day): 25 dB
hearing level (1000 Hz, Jan. 2004, water intake 1.5 lit./day): 25 dB
hearing level (1000 Hz, Jul. 2003, water intake 1.5 lit./day): 50 dB
hearing level (1000 Hz, Jun. 2003, water intake 1.5 lit./day from Jun. 20, 2003): 50 dB
hearing level (1000 Hz, Nov. 2003, water intake 1.5 lit./day): 30 dB
hearing level (1000 Hz, Oct. 2003, water intake 1.5 lit./day): 25 dB
hearing level (1000 Hz, Sep. 2003, water intake 1.5 lit./day): 45 dB
hearing level (2000 Hz, Aug. 2003, water intake 1.5 lit./day): 20 dB
hearing level (2000 Hz, Dec. 2003, water intake 1.5 lit./day): 20 dB
hearing level (2000 Hz, Jan. 2004, water intake 1.5 lit./day): 20 dB
hearing level (2000 Hz, Jul. 2003, water intake 1.5 lit./day): 45 dB
hearing level (2000 Hz, Jun. 2003, water intake 1.5 lit./day from Jun. 20, 2003): 25 dB
hearing level (2000 Hz, Nov. 2003, water intake 1.5 lit./day): 20 dB
hearing level (2000 Hz, Oct. 2003, water intake 1.5 lit./day): 20 dB
hearing level (2000 Hz, Sep. 2003, water intake 1.5 lit./day): 40 dB
hearing level (4000 Hz, Aug. 2003, water intake 1.5 lit./day): 30 dB
hearing level (4000 Hz, Dec. 2003, water intake 1.5 lit./day): 30 dB
hearing level (4000 Hz, Jan. 2004, water intake 1.5 lit./day): 25 dB
hearing level (4000 Hz, Jul. 2003, water intake 1.5 lit./day): 60 dB
hearing level (4000 Hz, Jun. 2003, water intake 1.5 lit./day from Jun. 20, 2003): 25 dB
hearing level (4000 Hz, Nov. 2003, water intake 1.5 lit./day): 35 dB
hearing level (4000 Hz, Oct. 2003, water intake 1.5 lit./day): 30 dB
hearing level (4000 Hz, Sep. 2003, water intake 1.5 lit./day): 40 dB
hearing level (8000 Hz, Aug. 2003, water intake 1.5 lit./day): 75 dB
hearing level (8000 Hz, Dec. 2003, water intake 1.5 lit./day): 60 dB
hearing level (8000 Hz, Jan. 2004, water intake 1.5 lit./day): 65 dB
hearing level (8000 Hz, Jul. 2003, water intake 1.5 lit./day): 85 dB
hearing level (8000 Hz, Jun. 2003, water intake 1.5 lit./day from Jun. 20, 2003): 75 dB
hearing level (8000 Hz, Nov. 2003, water intake 1.5 lit./day): 65 dB
hearing level (8000 Hz, Oct. 2003, water intake 1.5 lit./day): 80 dB
hearing level (8000 Hz, Sep. 2003, water intake 1.5 lit./day): 80 dB
hearing level, average (500-4000 Hz) (Aug. 2003, water intake 1.5 lit./day): 26.25 dB
hearing level, average (500-4000 Hz) (Dec. 2003, water intake 1.5 lit./day): 22.5 dB
hearing level, average (500-4000 Hz) (Jan. 2004, water intake 1.5 lit./day): 22.5 dB
hearing level, average (500-4000 Hz) (Jul. 2003, water intake 1.5 lit./day): 50.0 dB
hearing level, average (500-4000 Hz) (Jun. 2003, water intake 1.5 lit./day from Jun. 20, 2003): 35.0 dB
hearing level, average (500-4000 Hz) (Nov. 2003, water intake 1.5 lit./day): 23.75 dB
hearing level, average (500-4000 Hz) (Oct. 2003, water intake 1.5 lit./day): 25.0 dB
hearing level, average (500-4000 Hz) (Sep. 2003, water intake 1.5 lit./day): 41.25 dB
hearing level after treatment (case 6, right ear, 125 Hz, Apr. 11, 2002, poorest level 18-24 months after treatment, water intake): 65 dB
hearing level after treatment (case 6, right ear, 250 Hz, Apr. 11, 2002, poorest level 18-24 months after treatment, water intake, before 85 dB): 80 dB
hearing level after treatment (case 6, right ear, 500 Hz, Apr. 11, 2002, poorest level 18-24 months after treatment, water intake, before 85 dB): 80 dB
hearing level after treatment (case 6, right ear, 1000 Hz, Apr. 11, 2002, poorest level 18-24 months after treatment, water intake, before 85 dB): 85 dB
hearing level after treatment (case 6, right ear, 2000 Hz, Apr. 11, 2002, poorest level 18-24 months after treatment, water intake, before 75 dB): 75 dB
hearing level after treatment (case 6, right ear, 4000 Hz, Apr. 11, 2002, poorest level 18-24 months after treatment, water intake, before 90 dB): 90 dB
hearing level after treatment (case 6, right ear, 8000 Hz, Apr. 11, 2002, poorest level 18-24 months after treatment, water intake, before 95 dB): 90 dB
hearing level after treatment, average (500-4000 Hz) (case 6, right ear, Apr. 11, 2002, poorest level 18-24 months after treatment, water intake, before 83.75 dB): 82.5 dB
hearing improved as compared with before the treatment (four-frequency PTA) (case 6, right ear, water intake): 1.25 dB
category of change of hearing, AAO-HNS (1995) criteria (case 6, water intake): unchanged
hearing level after treatment (case 7, left ear, 125 Hz, Oct. 10, 2003, poorest level 18-24 months after treatment, water intake, before 35 dB): 5 dB
hearing level after treatment (case 7, left ear, 250 Hz, Oct. 10, 2003, poorest level 18-24 months after treatment, water intake, before 40 dB): 5 dB
hearing level after treatment (case 7, left ear, 500 Hz, Oct. 10, 2003, poorest level 18-24 months after treatment, water intake, before 30 dB): 5 dB
hearing level after treatment (case 7, left ear, 1000 Hz, Oct. 10, 2003, poorest level 18-24 months after treatment, water intake, before 20 dB): 5 dB
hearing level after treatment (case 7, left ear, 2000 Hz, Oct. 10, 2003, poorest level 18-24 months after treatment, water intake, before 10 dB): 5 dB
hearing level after treatment (case 7, left ear, 4000 Hz, Oct. 10, 2003, poorest level 18-24 months after treatment, water intake, before 30 dB): 20 dB
hearing level after treatment (case 7, left ear, 8000 Hz, Oct. 10, 2003, poorest level 18-24 months after treatment, water intake, before 40 dB): 45 dB
hearing level after treatment, average (500-4000 Hz) (case 7, left ear, Oct. 10, 2003, poorest level 18-24 months after treatment, water intake, before 22.5 dB): 8.75 dB
hearing improved as compared with before the treatment (four-frequency PTA) (case 7, left ear, water intake): 13.75 dB
category of change of hearing, AAO-HNS (1995) criteria (case 7, water intake): improved
hearing level after treatment (case 8, right ear, 125 Hz, Sep. 19, 2003, poorest level 18-24 months after treatment, water intake, before 60 dB): 40 dB
hearing level after treatment (case 8, right ear, 250 Hz, Sep. 19, 2003, poorest level 18-24 months after treatment, water intake, before 70 dB): 40 dB
hearing level after treatment (case 8, right ear, 500 Hz, Sep. 19, 2003, poorest level 18-24 months after treatment, water intake, before 60 dB): 35 dB
hearing level after treatment (case 8, right ear, 1000 Hz, Sep. 19, 2003, poorest level 18-24 months after treatment, water intake, before 60 dB): 40 dB
hearing level after treatment (case 8, right ear, 2000 Hz, Sep. 19, 2003, poorest level 18-24 months after treatment, water intake, before 50 dB): 40 dB
hearing level after treatment (case 8, right ear, 4000 Hz, Sep. 19, 2003, poorest level 18-24 months after treatment, water intake, before 65 dB): 60 dB
hearing level after treatment (case 8, right ear, 8000 Hz, Sep. 19, 2003, poorest level 18-24 months after treatment, water intake, before 85 dB): 80 dB
hearing level after treatment, average (500-4000 Hz) (case 8, right ear, Sep. 19, 2003, poorest level 18-24 months after treatment, water intake, before 58.75 dB): 43.75 dB
hearing improved as compared with before the treatment (four-frequency PTA) (case 8, right ear, water intake): 15.0 dB
category of change of hearing, AAO-HNS (1995) criteria (case 8, water intake): improved
